{"source": "paper PMC7801115", "about": "“Preclinical in vitro screening of newly synthesised amidino substituted benzimidazoles and benzothiazoles” (Journal of Enzyme Inhibition and Medicinal Chemistry, 2021)", "test_system": "MDCKII-hMDR1 cells", "assay": "MDCKII-MDR1 permeability and P-glycoprotein substrate assay", "format": "in vitro ADME, canine cells over-expressing human MDR1", "settings": "without P-gp inhibitor", "description": "Permeability and P-glycoprotein substrate assessment was done on MDCKII-hMDR1, Madin-Darby canine epithelial cells over-expressing human MDR1 gene, coding for P-glycoprotein.\nCells were prepared for transport studies by seeding on 96-well cell culture inserts (Millipore, MA, USA) in a concentration of 0.25 × 10^6 cells per ml. The cells were fed with fresh medium 24 h post seeding and cultured to confluence for 3 days before use. On the day of experiment, the cell monolayers were washed and equilibrated with transport medium (DPBS, pH 7.4 containing 1% DMSO) with or without P-gp specific inhibitor, elacridar (2 µM) for 45 min (37 °C, 5% CO2, 95% humidity). Test compound solution consisted of test substance (10 μM) in D-PBS medium containing lucifer yellow (100 μM) and 1% DMSO. Transport assays were conducted in apical to basolateral (A2B) and basolateral to apical (B2A) directions, respectively. Monolayers were incubated with the compound solution for 60 min at 37 °C under gentle agitation. Apical and basolateral compartments were sampled at the end of the transport experiment, while donor solutions were also sampled at the beginning of the experiment in order to determine initial concentration. Test substance concentrations in both compartments were determined by LC-MS/MS. There were several controls used in the assay: 1) amprenavir (0.5 μM) served as a low permeable control, being also a P-gp substrate; 2) diclofenac (10 μM) was used as a high permeable control; 3) Lucifer yellow, a fluorescent marker for the paracellular membrane transport, was used as a control of cell monolayer integrity.\nAll ADME samples were analysed on a Sciex API 4000 or Sciex API4500 Triple Quadrupole Mass Spectrometer (Sciex, Framingham, MA, USA) coupled to a UHPLC System (Shimadzu Nexera X2; Shimadzu, Kyoto, Japan). Samples were injected onto an UPLC column (HALO2 C18, 2.1 × 20 mm, 2 µm or Phenomenex Luna Omega Polar C18, 30 × 2.1 mm, 1.6 µm) and eluted with a gradient at temperature of 50 °C. The mobile phase was composed of acetonitrile (with 0.1% formic acid) and 0.1% formic acid in deionised water. A total run time was 1 or 1.5 min, with the flow rate of 0.7 ml/min (under gradient conditions). A positive ion mode with turbo spray, an ion source temperature of 500 °C and a dwell time of 150 ms were utilised for mass spectrometric detection. Multiple reaction monitoring (MRM) was used at the specific transitions for each compound/control tested: compound 5c: 361.9 → 304.9; compound 5d: 344.8 → 287.9; compound 5e: 349.8 → 292.9; compound 5 g: 350.8 → 293.9; compound 5 h: 344.0 → 286.9; compound 6a: 276.9 → 220.0; compound 5 b: 319.0 → 262.0; compound 6 b: 302.1 → 245.1; compound 6c: 344.9 → 288.0; compound 6d: 333.0 → 276.0; compound 6e: 316.1 → 259.0; compound 6f: 327.1 → 270.0; compound 6 g: 377.1 → 320.1; testosterone: 289.3→ 97.1; propranolol: 260.1 → 182.8; caffeine: 195.2 → 138.1; acebutolol: 337.2 → 116.2, nicardipine: 480.2 → 315.0; verapamil: 455.4 → 165.1; amprenavir: 506.2 → 245.4; diclofenac: 296.1 → 213.7 or 296.2 → 215.3; eucatropine: 292.2 → 109.1; benfluorex: 352.1 → 230.3, and warfarin: 309.2 → 163.2"}
{"smiles": "N#Cc1ccc(-c2nc3cc(C4=NCCCN4)ccc3[nH]2)cc1", "note": "[Compound 6b, 2–(4-Cyanophenyl)-5(6)–(3,4,5,6-tetrahydropyrimidin-1-ium-2-yl)benzimidazole chloride]", "values": [{"measurement": "MDCKII-MDR1 Efflux ratio", "result": 1.13}]}
